The source of these data is article PMC11876601 (Molecular Systems Biology, 2025).

One experiment concerns TAOK3. More on the design: method as in Reinecke et al. (2023). The settings on record: TAOK3, 5 cell line mix lysate, Kinobeads ε, ref Reinecke et al. (2023), cited from earlier work.
The subject of another experiment is MAP3K5. More on the design: method as in Reinecke et al. (2023). Conditions: MAP3K5, 5 cell line mix lysate, Kinobeads ε, ref Reinecke et al. (2023), cited from earlier work.
The next experiment concerns ABL2. The arrangement: method as in Reinecke et al. (2023). Conditions: ABL2, 5 cell line mix lysate, Kinobeads ε, ref Reinecke et al. (2023), cited from earlier work.
For the next experiment, the system named is PRKD1. More on the design: method as in Reinecke et al. (2023). The settings on record: PRKD1, 5 cell line mix lysate, Kinobeads ε, ref Reinecke et al. (2023), cited from earlier work.
A further experiment has as its system CAMKK2. More on the design: method as in Reinecke et al. (2023). The settings on record: CAMKK2, 5 cell line mix lysate, Kinobeads ε, ref Reinecke et al. (2023), cited from earlier work.
The test system of the next experiment is MAPKAPK5. More on the design: method as in Reinecke et al. (2023). The settings on record: MAPKAPK5, 5 cell line mix lysate, Kinobeads ε, ref Reinecke et al. (2023), cited from earlier work.
In a further experiment the test system is TAOK1. More on the design: method as in Reinecke et al. (2023). The settings on record: TAOK1, 5 cell line mix lysate, Kinobeads ε, ref Reinecke et al. (2023), cited from earlier work.
For a further experiment, the system named is PRKAG1. More on the design: method as in Reinecke et al. (2023). The settings on record: PRKAG1, 5 cell line mix lysate, Kinobeads ε, ref Reinecke et al. (2023), cited from earlier work.
Another experiment concerns the target BCR. The settings on record: 5 cell line mix lysate, Kinobeads ε, ref Reinecke et al. (2023), cited from earlier work.
A further experiment relates to PANC-1 cells. Briefly: Drug combination viability screen (ATPlite, 72 h). The experiment is classed as cell-based, human. More on the design: AUC: unit not given beside the values. On the procedure:
(§1) Cell viability was assessed by measuring ATP levels to indicate metabolic activity.
(§2) Afterward, small amounts were transferred to 384-well intermediate plates (Greiner Bio-One GmbH, Germany). […] For drug combination screening, 1000 to 5000 cells were seeded into 384-well plates (CulturPlate™, Perkin Elmer, MA, USA) using a Multidrop™ Combi Reagent Dispenser (Thermo Scientific, MA, USA) in 50 µl medium per well 24 h prior to drug treatment (seeding densities see Appendix Table S1). […] The final DMSO concentration in each well was 0.2%. […] Eight wells per plate without library drug served as negative controls, and sixteen wells per plate containing 5 µM Staurosporine served as positive controls. Control plates not containing any drug were used to correct for incubation effects, and data quality was assessed by calculation of Z-prime of positive and negative controls according to1 Z-prime=1−3SDpos+3SDneg/[…] where SD is the standard deviation. […] Dose–response curves from the experimental and hypothetical data were compared, and shifts in AUC were used to describe combination effects (AUC∆ = AUChypothetical − AUCexperimental). […] Only combinations with R^2 > 0.8 in both conditions were considered in the synergy analysis.
In general terms: In ATP-based viability assays light output follows the ATP content of the culture.

The subject of the next experiment is BxPC-3 cells. Briefly: Drug combination viability screen (ATPlite, 72 h). The experiment is classed as cell-based, human. Conditions: for EC50: Homo sapiens, BXPC-3. More on the design: AUC: unit not given beside the values. The protocol: as §1, §2
A further experiment concerns RASSF5. More on the design: method as in Klaeger et al. (2017). Conditions: RASSF5, 4 cell line mix lysate, Kinobeads y, ref Klaeger et al. (2017); cited from earlier work.
A further experiment has as its system ERN2. More on the design: method as in Klaeger et al. (2017). The settings on record: ERN2, 4 cell line mix lysate, Kinobeads y, ref Klaeger et al. (2017); cited from earlier work.
A further experiment relates to MOB1A;MOB1B. More on the design: method as in Klaeger et al. (2017). Conditions: 4 cell line mix lysate, Kinobeads y, ref Klaeger et al. (2017); cited from earlier work.

Read-outs that look alike come from different tables or passages of the source.
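Throughout, for AUC: area under vehicle-normalized viability curve scaled 0 to 100 percent.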
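Throughout, for Curve bottom: fraction of vehicle control viability from four-parameter log-logistic fit.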

With `COc1cc(N2CCC(N3CCN(C)CC3)CC2)ccc1Nc1ncc(Cl)c(Nc2ccccc2P(C)(C)=O)n1` [Brigatinib], the EC50 in the experiment on TAOK3 was 690 nM; with MAP3K5, 970 nM; with ABL2 it was 3.24 µM; with PRKD1, 45.9 nM; in the experiment on CAMKK2, 60.9 nM; in the experiment on MAPKAPK5, 62.7 nM. The figures for the EC50 with TAOK1, in the experiment on PRKAG1 and with BCR were 847 nM, 559 nM and 1050 nM, respectively. The pKDapp on TAOK3 is on record as 6.27; on MAP3K5, 6.11; at ABL2, 5.97; on PRKD1 it was 7.50; on CAMKK2 it was 7.39; on MAPKAPK5, 7.23. Moreover, the pKDapp is recorded as 6.25 at TAOK1, 6.45 on PRKAG1 and 6.30 at BCR. Moreover, the Kd at TAOK3 (read-out: KDapp) was 534 nM; on MAP3K5 (read-out: KDapp), 776 nM; on ABL2 (read-out: KDapp), 1070 nM; at PRKD1 (read-out: KDapp) it was 31.4 nM; at CAMKK2 (read-out: KDapp) it was 40.4 nM; at MAPKAPK5 (read-out: KDapp), 58.3 nM. For the same molecule, the figures for the Kd at TAOK1 (read-out: KDapp), at PRKAG1 (read-out: KDapp) and on BCR (read-out: KDapp) were 563 nM, 354 nM and 504 nM, respectively.

As for `Nc1ccn([C@@H]2O[C@H](CO)[C@@H](O)C2(F)F)c(=O)n1` [GEM, Gemcitabine], the EC50 is not below 10 nM in the experiment on PANC-1 cells (Homo sapiens, PANC-1, read-out: EC50,GEM); 3.59 nM in the experiment on BxPC-3 cells (read-out: EC50); 3.55 nM with BxPC-3 cells (read-out: pEC50 (converted)). The Reponse in the experiment with PANC-1 cells (PANC-1, R1, 13.72 nM) was determined as 5718200; in the experiment on PANC-1 cells (PANC-1, R1, 41.15 nM), 4879000; with PANC-1 cells (PANC-1, R1, 370.37 nM) it was 4043760; in the experiment on PANC-1 cells (PANC-1, R1, 1111.11 nM) it was 3920600; in the experiment with PANC-1 cells (PANC-1, R1, 3333.33 nM) it was 3788160; in the experiment on PANC-1 cells (PANC-1, R1, 10000 nM), 3980640. Besides, the Reponse in the experiment with PANC-1 cells (Panc-1, R2, 41.15 nM) amounted to 5844240; in the experiment on PANC-1 cells (Panc-1, R2, […] nM) it was 5369400; in the experiment on PANC-1 cells (Panc-1, R2, 370.37 nM) it was 5134080; with PANC-1 cells (Panc-1, R2, 1111.11 nM), 4763640; with PANC-1 cells (Panc-1, R2, 10000 nM), 4614040; in the experiment on PANC-1 cells (Panc-1, replicate R2, dose 13.72 nM, raw signal) it was 6385680. The Reponse in the experiment on BxPC-3 cells (BxPC-3, R1, 41.15 nM) is listed as 1061560; with BxPC-3 cells (BxPC-3, R1, […] nM), 1199800; with BxPC-3 cells (BxPC-3, R1, 370.37 nM), 1177280; in the experiment on BxPC-3 cells (BxPC-3, R1, 1111.11 nM), 1044400; in the experiment with BxPC-3 cells (BxPC-3, R1, 3333.33 nM), 1111640; with BxPC-3 cells (BxPC-3, R1, 10000 nM), 1115240. The Reponse with BxPC-3 cells (BxPC-3, R2, 13.72 nM) was found to be 1392120; in the experiment with BxPC-3 cells (BxPC-3, R2, 41.15 nM) it was 1083440; in the experiment with BxPC-3 cells (BxPC-3, R2, […] nM), 1301640; with BxPC-3 cells (BxPC-3, R2, 370.37 nM), 1316120; in the experiment on BxPC-3 cells (BxPC-3, R2, 1111.11 nM), 1172200; with BxPC-3 cells (BxPC-3, R2, 3333.33 nM), 1101720. The Reponse with BxPC-3 cells (BxPC-3, R2, 10000 nM) came to 982880. Further, the AUC is reported as 85.88 in the experiment on PANC-1 cells (PANC-1, GEM curve fit) and 45.89 with BxPC-3 cells (BxPC-3, GEM curve fit, in %). Moreover, the Curve bottom in the experiment with PANC-1 cells (PANC-1, GEM curve fit) was 0.69; in the experiment on BxPC-3 cells (BxPC-3, GEM curve fit), 0.26. For the same molecule, the Curve effect size is on record as 0.31 in the experiment on PANC-1 cells (PANC-1, GEM curve fit) and 0.75 in the experiment on BxPC-3 cells (BxPC-3, GEM curve fit). Further, the Curve slope in the experiment with PANC-1 cells (PANC-1, GEM curve fit) worked out at 1.11; with BxPC-3 cells (BxPC-3, GEM curve fit), 1.82. Besides, the Curve top in the experiment with PANC-1 cells (PANC-1, GEM curve fit) was found to be 1.01; in the experiment on BxPC-3 cells (BxPC-3, GEM curve fit), 1.03.

Take `C[C@]12O[C@H](C[C@]1(O)CO)n1c3ccccc3c3c4c(c5c6ccccc6n2c5c31)CNC4=O` [Lestaurtinib]: the results for the EC50 in the experiment with RASSF5, in the experiment with ERN2 and with MOB1A;MOB1B were 73 nM, 373 nM and 34 nM, respectively.
